# Reference: patent publication US20220347182A1, “METHODS AND COMPOSITIONS FOR THE TREATMENT OF OSTEOARTHRITIS” (The Board of Trustees of the Leland Stanford Junior …, priority 2019, published 2022)
# “Also recorded” adds a separate entry of the source.
# How the values were obtained:
# OA chondrocytes [1] = test: Human 62-plex Luminex array of secretome after drug treatment; type: cell-based; settings: for CCL2 secretion / CCL7 secretion: 48 hours vs DMSO/control, 50 μM JNK Inhibitor II, 25 μM BMS-345541, 50 μM SB 431542, 0.5 mM IBMX, combination compared to JNK inhibitor alone
# Protocol: Next, experiments were conducted to explore the functional effects of inhibiting these newly identified Inf-A cells in OA cartilage by capitalizing on their distinct signalling through JNK. Chondrocytes derived from 6 patients were cultured for 48-hours in the presence of JNK II inhibitor and the secretome was analyzed via 62 antibody human Luminex panels. Across all six patients, a variety of cytokines were altered, many trending toward significance. […] CCL2 and 7 are well-established chemoattractants for monocytes and are known to be altered during OA progression (see for example Ref 28). Genetic deletions of CCL2 and its receptor CCR2 prevent the development of surgical OA, further underscoring the importance of CCL2 as a key modulator in pathology (see for example Ref. 28). […] As a complementary approach, SMAD1/5, the other exclusive signaling pathway of the Inf-A cells was inhibited using an ALK inhibitor. ALK receptors are the most common upstream target of SMAD1/5 signaling in OA (See for example Ref. 31).
# (§1) OA cells were seeded at high density in 12-well plates and treated with control (DMSO) or drug next day for 48 hours. Drug doses were determined based on prior literature and validation-: 0.5 mM 3-Isobutyl-1-methylxanthine (IBMX, Sigma 15879) (See for example Ref. 33), 50 μM JNK Inhibitor II (Calbiochem 420119), 25 μM NFK-B inhibitor BMS-345541 (Sigma B9935) (See for example Ref 30, 43), 50 μM Alk inhibitor, SB 431542 hydrate (Sigma S4317 (See for example Ref. 44, 45) and 25 uM Kartogenin (Sigma SML0370) (See for example Ref. 24-26) were used with appropriate dilution in DMSO.
# Cell culture supernatants were collected and spun down at 10,000×g for 10 min at 4° C. to remove any cells or cell debris and then snap frozen in liquid nitrogen, before performing the assay. This assay was performed in the Human Immune Monitoring Center at Stanford University. Human 62-plex kits were purchased from eBiosciences/Affymetrix and used according to the manufacturer's recommendations with modifications as described below. Briefly, beads were added to a 96-well plate and washed in a Biotek ELx405 washer. Undiluted samples were added to the plate containing the mixed antibody-linked beads and incubated at room temperature for 1 hour followed by overnight incubation at 4° C. with shaking. Cold and room temperature incubation steps were performed on an orbital shaker at 500-600 rpm. Following the overnight incubation plates were washed in a Biotek ELx405 washer and then biotinylated detection antibody added for 75 minutes at room temperature with shaking. Plate was washed as above and streptavidin-PE was added. After incubation for 30 minutes at room temperature wash was performed as above and reading buffer was added to the wells. Each sample was measured in duplicate. Plates were read using a Luminex 200 instrument with a lower bound of 50 beads per sample per cytokine. Custom assay Control beads by Radix Biosolutions were added to all wells.
# OA chondrocytes [2] = test: RT-qPCR gene expression after drug treatment; type: cell-based, human; settings: 48 hours; for MMP13 expression: OA patients n=3
# Protocol: Cells for RNA extraction were collected in RNA lysis buffer (Zymo Research) and processed according to the manufacturer's specifications for the Quick-RNA MicroPrep Kit (Zymo Research, R1051), including the optional DNAse1 digestion. RNA quality and quantity was measured using the Nanodrop 1000 Spectrophotometer. All samples had A260/280 scores between 1.6-1.8.
# […] of RNA from each sample was reversed transcribed into cDNA using the High Capacity cDNA Reverse Transcription Kit (Applied Biosystems, 4368813). Quantitative PCR was performed using TaqMan gene-specific expression assays, FAM-labeled, for metalloproteinase 3, 9, a 13 (Hs00233962_m1, Hs00957562_m1, Hs00233992_m1), with a universal mastermix (Applied Biosystems, 4369016). Gene expression levels were normalized with FAM-labeled Actin-beta (Hs01060665_g1).
# For Tfam, CD24 and PGC1a, we utilized the SybrGreen mastermix (Applied Biosystems, A25742) according to manufacturer's specifications. Primer sequences: Tfam_F: 5′-GCTCAGAACCCAGATGCA AAA-3′, Tfam_R 5′-AGGAAGTTCCCTCCAACGC-3′, PGCla_F: 5′-[…]-3′, PGC1a_R: 5′-[…]-3′, CD24_F: 5′-TACCCACGCAGATTTATT-3′, CD24_R: 5′-AGA GTGAGACCACGAAGA-3′, Actin_F 5′-CACCAACTGGGACGACAT-3′, Actin_R: 5′-ACAGCCTGGATAGCAACG-3′. qPCR reactions included a 2-minute incubation at 50° C. to inactivate previous amplicons with uracil-DNA glycosylase, followed by a 10-minute incubation at 95° C. to activate the Taq polymerase. The amplification cycle, consisting of 15 seconds at 95° C., and 1 minute at 60° C., was repeated 40 times. The relative expression levels were determined using the ΔCt method (CT gene of interest−CT internal control−Actin) and relative gene expression is calculated using 2−ΔCt method and plotted.
# as §1
# [3] = tested on: post-traumatic osteoarthritis (PTOA); test: Mouse model of post-traumatic osteoarthritis (tibial loading), OARSI histological scoring; type: in vivo, wildtype C57BL mice; settings: 50 uM, 8 weeks post-injury vs control; for OA progression: intra-articular, 2 injections every week starting 1 week after tibial loading
# Protocol: Using a mouse model of post-traumatic osteoarthritis (PTOA) wherein mechanical loading can lead to onset and progression of OA (Christiansen et al. 2012), Applicant tested if early intervention with small molecule modulators of the Inf A populations can modulate the onset or progression of OA in vivo. For these experiments, wildtype C57BL mice were injected with (a) control or (b) Inf-A inhibitor (JNK II inhibitor) OA initiation to test whether these putative modulations can be therapeutic in OA. The injections were given starting 1 week after tibial loading and at a frequency of 2 injections every week to ensure their efficacy. For histological assessment, the OARSI scoring criteria was utilized to grade the OA severity with the score of 0-6 grades ranging from intact cartilage to erosion and deformation of cartilage/bone. For the quantification of OA development in each control or injured joint, 6 sagittal sections (4 μm thickness) spaced 50 μm are typically cut and stained in order to cover the whole joint compartment. A maximum score for the overall section (both tibial plateau and femoral condyle) is obtained after assigning the most severe damage score for each section and averaging the scores; a summit score (sum of the calculated scores) is calculated as a measure of the prevalent damage over the whole joint.
# OA chondrocytes [4] = test: cyTOF profiling of CPC cluster abundance after kartogenin treatment; type: cell-based, human; settings: 25 uM kartogenin vs DMSO, 48 hours
# Text: Experiments were undertaken to understand how the application of a pro-regenerative drug would affect this CPC landscape, specifically the pro-inflammatory CPCs four in Group C. Kartogenin (KGN) was originally identified in a screen to expand mesenchymal stem cells and has since been shown in multiple studies to be a pro-chondrogenic modulator of OA progression in animal models (See for example Ref. […]). One patient from Group C (OA15) and one patient from Group A (OA5) were utilized. One patient from Group A (OA5) and one patient from Group C (OA15) were treated with kartogenin or control (DMSO) for 48 hours, fixed, stained and profiled by cyTOF as previously described. […] The treatment additionally expanded low-inflammation clusters 7 and 11 in the Group A patient, where they already appeared overrepresented, while these clusters were not expanded in the Group C patient. Furthermore, kartogenin reduced pro-inflammtory clusters 9, 12 in both the patients, though to a greater degree in the Group C patient enriched in those subtypes (FIG. 3G). Overall, kartogenin appears to expand normal-like and low inflammation CPC clusters (2, 10, 7 and 11) while reducing the high inflammation CPC III clusters (12 and 16).
# as §1
# OA cells were cultured to confluence in 10 cm dishes. On the collection day, cells were stained with 25 μM Idu for 15 min at 37° C. in the cell incubator, then with 0.5 μM cisplatin for 5 min at RT. Cells were then lifted with 0.25% Trypsin-EDTA (Gibco) for 15 min at 37° C. Trypsin was quenched using media containing 10% FBS and cell were washed 3 times with PBS to remove any trace amounts of trypsin. Cells were fixed after straining through a […] strainer in 1.6% PFA for 10 min at RT. Cells were washed 4 times with cells staining media, counted and frozen in 1 million cell aliquots in a small amount of cell staining media at −80° C. To stain, cells were thawed on ice and barcoded using the Cell-ID 20-plex Pd Barcoding Kit (Fluidigm) according to the manufacturer's specifications. After barcoding, cells were labeled as previously described (See for example Ref 13). Briefly, all barcoded samples were combined into one FACs tube, and washed 3× with cell staining media and stained with the cell surface antibodies for 30 minutes at RT according to the concentrations in Table 2. Cells were then was 2× with cell staining media and permeabilized with 1 mL of cold methanol added dropwise with continuous gentle vortexing. Cells were incubated for 10 min on ice, with gentle vortexing every 2-3 minutes to avoid cell clumping, then washed in cell staining media and stained with the intracellular antibodies for 30 minutes at RT. After 2× washed with cell staining media, cells were resuspended in 1.6% PFA with Cell-ID Intercalator-Ir (Fluidigm) used at 1:2000. Cells were measured using the cyTOF 2 (Fluidigm) and injected using the supersampler. […]
# [5] = 48 hours vs DMSO, 50 μM SB 431542, combination compared to JNK inhibition alone
compound,measurement,setting,value
"NC(=O)c1ccc(-c2nc(-c3ccc4c(c3)OCO4)c(-c3ccccn3)[nH]2)cc1 [ALK inhibitor, SB 431542 hydrate]",CCL2 secretion,OA chondrocytes [1],decrease
same,CCL7 secretion,OA chondrocytes [1],decrease
same,CXCL1 secretion,OA chondrocytes [1]; [5],decrease
same,CXCL5 secretion,OA chondrocytes [1]; [5],decrease
Cc1ccc2nc(NCCN)c3ncc(C)n3c2c1 [BMS-345541],CCL2 secretion,OA chondrocytes [1],did not affect
same,CCL7 secretion,OA chondrocytes [1],did not affect
"CC(C)Cn1c(=O)n(C)c(=O)c2[nH]cnc21 [IBMX, 3-Isobutyl-1-methylxanthine]",CCL2 secretion,OA chondrocytes [1],modest downregulation
same,CCL7 secretion,OA chondrocytes [1],modest downregulation
same,upregulation of CD24 expression,OA chondrocytes [2]; 0.5 mM IBMX,2-4 fold
same,MMP13 expression,OA chondrocytes [2],no consistent effect; also recorded: No significant differences
same,Pgc1a gene expression,OA chondrocytes [2]; IBMX,increased
same,Tfam gene expression,OA chondrocytes [2]; IBMX,increased
O=C1c2ccccc2-c2n[nH]c3cccc1c23 [JNK II inhibitor],max score (OARSI),[3],reduced
same,summit score (OARSI),[3],reduced
same,OA progression,[3],slowed
same,OA progression,[3]; listed as JNKII inhibitor,slows down progression
same,CCL2 secretion,OA chondrocytes [1],significant decrease
same,CCL7 secretion,OA chondrocytes [1],significant decrease
same,CCL2 secretion,OA chondrocytes [1]; listed as INK inhibitor,overall reduction
same,CCL7 secretion,OA chondrocytes [1]; listed as INK inhibitor,overall reduction
same,MMP gene expression,OA chondrocytes [2],remained unaffected
same,MMP13 expression,OA chondrocytes [2],No significant differences
O=C(O)c1ccccc1C(=O)Nc1ccc(-c2ccccc2)cc1 [Kartogenin],abundance of low-inflammation clusters 7 and 11,OA chondrocytes [4]; Group A patient (OA5),expanded
same,abundance of low-inflammation clusters 7 and 11,OA chondrocytes [4]; Group C patient (OA15),not expanded
same,"abundance of pro-inflammatory clusters 9, 12",OA chondrocytes [4]; both patients,reduced
same,abundance of cluster 2 (CPC I) and cluster 10 (CPC II),"OA chondrocytes [4]; both patients (OA5 Group A, OA15 Group C)",selectively expanded
same,abundance of high inflammation CPC III clusters (12 and 16),OA chondrocytes [4]; overall summary,reducing
